Where “and” joins values, the source holds several entries; their conditions need not be identical. Identical values can stand only once. Peptide text beside a SMILES is read from it.
Test system: erythrocytes infected with 3D7 trophozoites
Type: cell-based, Plasmodium falciparum
Conditions: sheet Ratio; for Ratio of metabolite abundance, Exp1_1hr: Exp1, 1hr; for Ratio of metabolite abundance, Exp1_3hr: Exp1, 3hr; for Ratio of metabolite abundance, Exp1_6hr: Exp1, 6hr; for Ratio of metabolite abundance, Exp2_1hr: Exp2, 1hr; for Ratio of metabolite abundance, Exp2_3hr: Exp2, 3hr; for Ratio of metabolite abundance, Exp2_6hr: Exp2, 6hr; for Ratio of metabolite abundance, Exp3_1hr: Exp3, 1hr; for Ratio of metabolite abundance, Exp3_3hr: Exp3, 3hr; for Ratio of metabolite abundance, Exp3_6hr: Exp3, 6hr

Row | SMILES | Ratio of metabolite abundance, Exp1_1hr | Ratio of metabolite abundance, Exp1_3hr | Ratio of metabolite abundance, Exp1_6hr | Ratio of metabolite abundance, Exp2_1hr | Ratio of metabolite abundance, Exp2_3hr | Ratio of metabolite abundance, Exp2_6hr | Ratio of metabolite abundance, Exp3_1hr | Ratio of metabolite abundance, Exp3_3hr | Ratio of metabolite abundance, Exp3_6hr
1 | CC(C)[C@H](NC(=O)[C@H](CC(N)=O)NC(=O)[C@@H](N)[C@@H](C)O)C(=O)N[C@@H](CCCCN)C(=O)O [TNVK] (H-TNVK-OH) | 0.4459 | 0.2171 | 0.7349 | 0.5855 | 0.3584 | 0.8812 | 0.5059 | 0.3409 | 1.2
2 | Nc1nc2c(ncn2[C@@H]2O[C@H](COP(=O)(O)OP(=O)(O)O)[C@@H](O)[C@H]2O)c(=O)[nH]1 [GDP] | 0.4319 | 0.3131 | 0.5082 | 0.6304 | 0.5095 | 0.5364 | 0.8846 | 0.5153 | 0.569
3 | O=c1[nH]cnc2c1ncn2[C@@H]1O[C@H](COP(=O)(O)OP(=O)(O)O)[C@@H](O)[C@H]1O [IDP] | 0.8853 | 1.384 | 1.314 | 0.5363 | 0.6148 | 0.824 | 1.461 | 1.458 | 1.561
4 | Cc1cn([C@H]2C[C@H](O)[C@@H](COP(=O)(O)O)O2)c(=O)[nH]c1=O [dTMP] | 1.094 | 1.051 | 1.314 | 1.082 | 1.005 | 1.669 | 0.8062 | 1.245 | 1.203
5 | Nc1ncnc2c1ncn2[C@@H]1O[C@H](CSCC[C@H](N)C(=O)O)[C@@H](O)[C@H]1O [S-Adenosyl-L-homocysteine] | 0.9683 | 0.7021 | 0.8395 | 0.9429 | 0.8753 | 1.175 | 0.839 | 0.8468 | 0.8042
6 | CC(C)[C@H](NC(=O)[C@@H]1CCCN1)C(=O)N[C@@H](CC(N)=O)C(=O)N[C@@H](Cc1ccccc1)C(=O)O [PVNF] (H-PVNF-OH) | 0.6556 | 0.3908 | 1.343 | 0.8248 | 0.5795 | 1.295 | 0.9151 | 0.7449 | 2.085
7 | O=C(O)CC[C@H](NC(=O)[C@H](CCC(=O)O)NC(=O)[C@@H]1CCCN1)C(=O)O [PEE] (H-Pro-Glu-Glu-OH) | 1.088 | 0.6949 | 2.228 | 1.338 | 0.8845 | 1.822 | 1.136 | 1.044 | 2.15
8 | O=C(O)[C@H](O)[C@@H](O)[C@H](O)[C@H](O)COP(=O)(O)O [6-Phospho-D-gluconate] | 1.0502 and 0.8295 | 0.8826 and 0.6724 | 0.7609 and 0.6355 | 0.8989 and 0.6621 | 0.8049 and 0.5841 | 0.8315 and 0.5366 | 0.955 and 0.8159 | 0.8757 and 0.6904 | 0.7181 and 0.6347
9 | O=C[C@H](O)COP(=O)(O)O [Glyceraldehyde 3-phosphate] | 0.7448 | 0.7431 | 0.4349 | 0.5818 | 0.6033 | 0.4986 | 0.4745 | 0.6544 | 0.4238
10 | CC(=O)SCCNC(=O)CCNC(=O)[C@H](O)C(C)(C)COP(=O)(O)OP(=O)(O)OC[C@H]1O[C@@H](n2cnc3c(N)ncnc32)[C@H](O)[C@@H]1OP(=O)(O)O [Acetyl-CoA] | 0.7257 | 0.4303 | 0.3828 | 0.6969 | 0.7538 | 0.6508 | 0.7524 | 0.685 | 0.5138
11 | CC(C)[C@H](NC(=O)[C@@H]1CCCN1C(=O)[C@@H]1CCCN1)C(=O)N[C@@H](CCC(N)=O)C(=O)O [PPVQ] (H-PPVQ-OH) | 1.0595 | 0.6401 | 0.763 | 1.014 | 0.8051 | 0.8204 | 0.973 | 0.9388 | 0.9472
12 | Nc1nc2c(ncn2[C@@H]2O[C@H](COP(=O)(O)O)[C@@H](O)[C@H]2O)c(=O)[nH]1 [GMP] | 0.2584 | 0.2388 | 0.4652 | 0.6356 | 0.2451 | 0.4274 | 0.5874 | 0.5355 | 0.8077
13 | Nc1nc2c(ncn2[C@H]2C[C@H](O)[C@@H](COP(=O)(O)O)O2)c(=O)[nH]1 [dGMP] | 1.008 | 1.65 | 0.6713 | 1.04 | 0.9344 | 0.8266 | 1.138 | 0.9165 | 0.8614
